Consider 2 molecules from publication PMC13198932, “Pyrazolone-based ERO1 inhibitors in ERO1-driven triple-negative breast cancer and SEPN1-related myopathy: Structure–activity relationship and therapeutic potential” (Pharmacological research, 2025).

Molecules are shown by their SMILES. Where “and” joins values, the source holds several entries; their conditions need not be identical. Equal values may be shown once. Entries after “also recorded” stand apart in the source; their conditions may differ. Read-outs that look alike come from different tables or passages of the source.

One data set concerns the target T1, recombinant ERO1A (Mus musculus, UniProt Q8R180).
T1 construct: GST-SMT3-mouse ERO1A (residues 43–464); GST-SMT3 (GST-SUMO) (N, cleaved yes); made in house; host or cells: E. coli Rosetta DE3 (Novagen)
T1 sequence (Q8R180 43-464): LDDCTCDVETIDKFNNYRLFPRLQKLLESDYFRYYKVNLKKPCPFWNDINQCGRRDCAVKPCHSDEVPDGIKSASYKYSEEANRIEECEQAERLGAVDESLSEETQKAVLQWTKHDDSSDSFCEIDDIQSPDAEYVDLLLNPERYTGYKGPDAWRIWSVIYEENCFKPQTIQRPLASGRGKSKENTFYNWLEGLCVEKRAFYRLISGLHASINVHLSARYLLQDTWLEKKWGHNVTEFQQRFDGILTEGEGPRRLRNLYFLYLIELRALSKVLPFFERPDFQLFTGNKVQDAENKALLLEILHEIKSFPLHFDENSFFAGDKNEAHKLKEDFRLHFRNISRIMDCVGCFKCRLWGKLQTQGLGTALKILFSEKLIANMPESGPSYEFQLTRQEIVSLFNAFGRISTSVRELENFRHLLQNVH
Briefly: AUR-based kinetic assay of ERO1A activity (recombinant ERO1A and PDIA1, HRP, Amplex Ultra Red). The data set is classed as biochemical. As to conditions: for IC50: Table 1 in Fig. 3. An excerpt:
A GST-SMT3-mouse ERO1A (residues 43–464) and His-tagged PDIA1 [30] were expressed in the Rosetta DE3 bacteria (Novagen) and purified as described in [29, 31]. The GST-SMT3 and His tags were cleaved using Ulp protease (Z03691, GenScript) and thrombin protease (T6884, Merck), respectively. Successful tag removal was confirmed by a shift to a lower molecular weight for ERO1A on SDS-PAGE and by the absence of signal in anti-His immunoblotting for PDIA1.
The kinetic assay of ERO1A activity is based on a reaction involving recombinant ERO1A and PDIA1 proteins, horseradish peroxidase (Worthington), and 5 μM Amplex Ultra Red, as detailed in [29]. The effect of ERO1A inhibitors was evaluated by preincubating the compounds with ERO1A and measuring the inhibition of the linear reaction rate, and the corresponding IC50 values were determined using Prism 10 (GraphPad).
EN460 and 16 newly synthesized derivatives (I24–I40) (except for I31, which was not evaluated due to potential toxicity associated with its CN group) were evaluated for their ability to inhibit ERO1-dependent AUR fluorescence using a kinetic assay with recombinant ERO1 and PDIA1, as previously described (Figs. 3A and 3B). Raw kinetic data showing AUR fluorescence over time in reactions containing reduced ERO1, PDIA1 and EN460-derivatives are presented in Fig. Sup.1 A and Sup. 1B. Reaction rates, measured in presence or absence of varying concentrations of each compound, were used to calculate IC50 values, defined as the concentration required to inhibit 50 % of ERO1 enzymatic activity (Figs. 3C, 3D and Fig. Sup1C).

Details of data set [1]: method as in PMID 37132383. The following applies: cited from earlier work.
The target of a further data set is T2, ERO1 in E0771 cells (Mus musculus, UniProt Q8R180).
T2 construct: endogenous in cells; host or cells: E0771
T2 sequence (Q8R180 24-464): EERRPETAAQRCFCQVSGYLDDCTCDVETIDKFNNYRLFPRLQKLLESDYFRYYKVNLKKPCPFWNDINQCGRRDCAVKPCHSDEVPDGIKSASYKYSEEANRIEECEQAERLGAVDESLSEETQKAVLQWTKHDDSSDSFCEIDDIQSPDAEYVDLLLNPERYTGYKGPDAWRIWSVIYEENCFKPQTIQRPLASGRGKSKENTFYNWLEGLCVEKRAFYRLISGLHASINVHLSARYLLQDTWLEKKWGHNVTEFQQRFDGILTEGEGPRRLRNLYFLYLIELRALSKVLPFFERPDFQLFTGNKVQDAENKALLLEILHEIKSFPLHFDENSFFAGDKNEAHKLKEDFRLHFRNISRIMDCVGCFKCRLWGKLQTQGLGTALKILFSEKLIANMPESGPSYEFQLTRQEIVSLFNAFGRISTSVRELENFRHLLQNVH
Briefly: ERO1 redox state by non-reducing immunoblot in E0771 cells. The data set is classed as cell-based, murine. As to conditions: E0771, Fig. 4F. As for the experimental part: MDAMB231 and E0771 cells were maintained in Dulbecco’s Modified Eagle’s Medium supplemented with 1 % fetal bovine serum and seeded at 70 % confluency in six-well plates one day prior to the experiment. Cells were treated with DTT (10 mM) and/or ERO1A inhibitors for 1–5 h. At the time of collection, phosphate-buffered saline containing 10 mM NEM was added, and cells were incubated on ice for 10 min in lysis buffer (50 mM Tris-HCl, pH 7.4; 150 mM NaCl; 1 % Triton X-100; 0.1 % SDS; 1 % sodium deoxycholate; protease inhibitors; and 10 mM NEM). Protein concentrations were determined using the BCA assay, and equal amounts of protein were separated by non-reducing SDS-PAGE followed by immunoblotting with a polyclonal antibody against ERO1A [33].
Background: Immunoblotting shows a protein as a band on a membrane.

[2] abbreviates: compounds dissolved in DMSO, preincubated with ERO1A, NA stands for not active, read-out: IC50.
The mark [3] stands for this setting: logarithm of IC50 in μM, compounds dissolved in DMSO, read-out: Log IC50 (confidence intervals) (converted).

In general, IC50 refers to the concentration at which inhibition is half-maximal. For the molecule `O=C(O)c1cc(N2N=C(C(F)(F)F)/C(=C\c3ccc(-c4ccccc4)o3)C2=O)ccc1Cl` [EN460, reference compound], the IC50 is 6 µM on recombinant ERO1A (setting [2]) and 5.89 µM on recombinant ERO1A (setting [3]). For the same molecule, the aqueous solubility entry in data set [1] is “poor aqueous solubility”.
`O=C1/C(=C/c2ccc(-c3ccccc3)o2)C(C(F)(F)F)=NN1c1ccccc1F` [I29]: the “IC50 / potency relative to EN460” value on recombinant ERO1A (compared with EN460) was “more than two times lower; also recorded: twofold lower; also recorded: approximately twofold higher activity; also recorded: twofold increase in potency”. Moreover, the “ERO1 inhibitory activity (in words)” value at recombinant ERO1A (compounds dissolved in DMSO) is reported as “highest potency”. Further, the IC50 on recombinant ERO1A (setting [2]) is 2.6 µM and ~2.6 µM; on recombinant ERO1A (setting [3]), 2.63 µM. In addition, the “ERO1 redox assay compared with EN460” value on ERO1 in E0771 cells is “superior efficacy of I29 over EN460”.
